According to US12226374B2, “Compositions comprising quinone and/or quinol and methods of preparations and use thereof” (American River Nutrition, LLC, priority 2019, dated 2025):

How the values were obtained:
Assay type in all cases: physicochemical
[1] = Stability of CoQ10 at elevated temperatures in CoQ:AP:GG mixture (HPLC)
Experimental: (§1) The weight ratios of CoQone to CoQnol in the mixture were determined by HPLC using a modified method disclosed by Mattila (Mattila et al., 2000), which is incorporated by reference in its entirety. Samples were extracted from the mixing vessel under inert gas flush and the mixing vessel was then flushed with inert gas prior to resealing. Samples were dissolved in chloroform and then analyzed on a Waters Symmetry C18 column (5 μm, 4.6×250 mm) at about 35° C. The mobile phase (1.8 mL/min) was methanol:ethanol:2-propanol (53:25:22) with UV detection at 275 nm for CoQone and 290 nm for CoQnol. The retention times were about 5.7 min for CoQnol and about 8.8 min for CoQone, respectively. The HPLC method described herein was utilized in subsequent examples.
GG was added to an appropriately sized mixing vessel and heated to about 52° C. (±3°) while stirring. CoQone was added to the mixing vessel with GG to form a mixture. The mixture was stirred at about 52° C. (±3°) until CoQone was completely melted and solubilized in GG to attain a translucent solution. Then AP was added to the translucent solution, which was stirred until no visible dry AP was left on the surface. […] This mixture was then mixed at elevated temperature for 10 days with periodic flushing of neutral, non-oxygenated gas where the CoQnol conversion rate and the total amount of CoQ (both CoQnol and CoQone) were monitored.

[2] = CoQone solubilized in GG as binary mixture: dissolution and degradation; settings: CoQone about 25% / GG about 75%
Experimental: as §1
GG was added to an appropriately sized mixing vessel and heated to about 52° C. (±3°) while stirring. CoQone was added to the mixing vessel with GG to form a mixture. The mixture was stirred at about 52° C. (±3°) until CoQone was completely melted and solubilized in GG to attain a translucent solution. The mixing vessel was then flushed with a neutral, non-oxygenated gas until atmospheric air was displaced and the mixing vessel was sealed airtight. This mixture was then mixed for several days.

[3] = CoQone mixed directly with AP (binary mixture) at elevated temperature: total CoQ degradation; settings: about 75° C., about 3 days
Experimental: as §1
CoQone was added to an appropriately sized mixing vessel and melted at about 52° C. (±3°) while stirring. AP was added to the mixing vessel with CoQone to form a mixture. The mixture was gently stirred at about 52° C. (±3°) until no apparent dry AP was visible. The mixing vessel was then flushed with a neutral, non-oxygenated gas until atmospheric air was displaced and the mixing vessel was sealed airtight. This mixture was then mixed at elevated temperature for several days with periodic flushing of inert gas with the CoQone to CoQnol conversion rate being monitored.

[4] = Headspace comparison of inert gases (nitrogen vs argon): total CoQ10 loss; settings: CoQ10:AP:GG about 4:2:4, about 52° C., about 6-7 days
Experimental: as §1
CoQ10, AP, and GG are provided in the weight ratio of about 4:2:4. The three components were placed in a mixing vessel kept stirred at about 52° C. (±3°). The mixing vessel was flushed with a neutral, non-oxygenated gas until atmospheric air was displaced entirely by Nitrogen […] or Argon (Ar) and sealed airtight. This mixture was then stirred at elevated temperatures for about 6-7 days until the target CoQnol conversion rate was reached.

[5] = Manufacture production batch (20 kg) and softgels: total CoQ loss and stability; settings: 20 kg CoQone:AP:GG batch, argon, about 52° C., about six days
Experimental: A manufacture batch was run according the preparation methods set forth in Example 1 with the following modifications. The total amount of CoQone:AP:GG mixtures was 20 kg. Argon was used to flush the mixing vessel until the atmospheric air was displaced. After the mixing vessel was sealed air-tight, this mixture of CoQone:AP:GG was then stirred at about 52° C. (±2°) for about six days with periodic flushing of Argon for about every 24 hours.
The final composition in the sealed vessel was placed in a hopper for the encapsulation process in a softgel assembly line. The finished softgels were analyzed to determine that the weight percentage of CoQnol in total amount of CoQnol and CoQone is about 93%. […] Softgels are hermetically sealed and the contents within the softgels are expected to be stable for at least about 2 years.

COC1=C(OC)C(=O)C(C/C=C(\C)CC/C=C(\C)CC/C=C(\C)CC/C=C(\C)CC/C=C(\C)CC/C=C(\C)CC/C=C(\C)CC/C=C(\C)CC/C=C(\C)CCC=C(C)C)=C(C)C1=O [CoQ10]
loss of total CoQ10 ([1]; about 3-5 days at about 50-55° C., initial ratio CoQ:AP:GG 1:1:1): less than 5%
loss of total CoQ (both CoQone and CoQnol) ([1]; about 8-10 days at about 50-55° C., fixed initial ratio CoQ:AP:GG about 1:1:1, inert gas with periodic flushing): about 15%
dissolution of CoQ10 in GG ([2]; about 52° C.): completely dissolved
degradation of CoQ ([2]; after about 3 weeks, inert gas): nor was there any degradation
total CoQ10 degraded [3]: about 21%
total loss of CoQ10 ([4]; argon-filled headspace): less than 0.5%
total CoQ10 loss ([4]; nitrogen-filled headspace): about 7%
loss of the total CoQ [5]: without any measurable loss
